# Laboratory results: patent publication US10981864B2, “Crystalline modifications of N-(4,5-bismethanesulfonyl-2-methylbenzoyl)guanidine hydrochloride and N-(4,5-bismethanesulfonyl-2-methylbenzoyl)guanidine salts” (MERCK PATENT GMBH, priority 2016, dated 2021)
# Values joined by “and” are separate entries in the source; they are usually repeats but may differ in a detail not shown here. Equal entries are not always repeated. Structures can show the parent of a compound that is named as a salt.
# Legend:
# human PASMCs = conditions: in vitro; cited from earlier work
# SuHx rats = conditions: in vivo; cited from earlier work
# [1] = Thermal behaviour (DSC/TGA), thermal stability; assay type: physicochemical; conditions: DSC/TGA 5 K/min
# Description: As used herein, unless stated otherwise, the DSC measurements are carried out using a Mettler-Toledo DSC 821 with a heating rate of 5 K/min, using nitrogen purge gas at 50 mL/min.
# As used herein, unless stated otherwise, the TGA measurements are carried out using a Mettler-Toledo TGA 851 with a heating rate of 5 K/min, using nitrogen purge gas at 50 mL/min.
# [2] = Mini-dissolution in FeSSIF medium (pH 5.0), dissolved quantity by HPLC; assay type: physicochemical; conditions: for Dissolution levels in FeSSIF pH 5.0: FeSSIF pH 5.0, 37° C.; for Dissolution behavior compared to prior-art form HCl-H1: biorelevant media, Fed-state conditions (FeSSIF, pH 5.0)
# Description: Approximately 10-12 mg of N-(4,5-bis-methanesulfonyl-2-methyl-benzoyl)guanidine form HCl-H1 (HCl salt hydrate form, prior-art), HCl salt anhydrous forms (forms HCl-A1, HCl-A2, HCl-A3), and novel salt forms [phosphate salt (form Phosphate-NF1), maleate salt (form Maleate-NF2), oxalate salt (form Oxalate-NF1), citrate salt (form citrate-NF1), sulfate salt (form Sulfate-NF3), succinate salt (form Succinate-NF1), malonate salt (form Malonate-NF1), besylate salt (form Besylate-NF1), p-tosylate salt (form Tosylate-NF1), malate salt (form Malate-NF1), fumarate salt (form Fumarate-NF1), tartrate salt (form Tartrate-NF1)] are weighed into 4 mL glass vials, and dispersed in 4 mL FeSSIF medium (pH 5.0, Acetate buffer capacity increased by factor 4 to ensure stable pH conditions over course of dissolution experiments).
# All dispersions are agitated at 37° C. for up to 2 hours. At defined time intervals (5 min, 15 min, 60 min, 120 min), 0.4 mL sample aliquots of homogeneous dispersions are withdrawn by a syringe, and filtrated via syringe filter adapters (PTFE, 0.2 μm). Clear filtrates are diluted (1:20) with respective Acetate blank buffer, and diluted samples analyzed by HPLC for dissolved quantities of N-(4,5-bis-methanesulfonyl-2-methyl-benzoyl)-guanidine.
# [3] = Water Vapour Sorption isotherm (DVS), hygroscopicity acc. to Ph. Eur.; assay type: physicochemical; conditions: for Water uptake levels (Water Vapour Sorption): 25° C.
# Description: As used herein, unless stated otherwise, Water Vapour Sorption isotherm measurements are carried out on a DVS-1 or a DVS-Intrinsic system from SMS.
# A second endothermic event occurs at >180° C., which is due to melting of the dehydrated form. This is followed by immediate re-crystallisation (exothermic event), and subsequent melting of the re-crystallized phase at >240° C. […] DSC scan of form HCl-H1 was acquired on a Mettler-Toledo DSC 821 with a heating rate of 5 K/min, using nitrogen purge gas at 50 mL/min. […] Form HCl-H1 can be classified as non-hygroscopic acc. to Ph. Eur. criteria (section 5.11.). […] Water Vapour Sorption isotherm was acquired on a DVS-1 system from SMS. • Dissolution level of form HCl-H1 in Fed-State Simulated Intestinal Fluid [FeSSIF, pH 5.0] at 37° C. was determined to be approx. 1.50 mg/mL (after 15 min), approx. 4.16 mg/mL (after 60 min), and approx. 4.54 mg/mL (after 120 min), respectively (see example 17).
# [4] = tested on: monocrotaline-treated rats; conditions: in vivo; cited from earlier work
# [5] = target: sodium-hydrogen antiporter 1 (NHE-1) (Homo sapiens, UniProt P19634); conditions: cited from earlier work
# [6] = tested on: animal models of DMD and dilated cardiomyopathy; conditions: cited from earlier work
# [7] = relative humidity range 0-80% rh
# Sequence of sodium-hydrogen antiporter 1 (NHE-1) (P19634 whole entry, species assumed): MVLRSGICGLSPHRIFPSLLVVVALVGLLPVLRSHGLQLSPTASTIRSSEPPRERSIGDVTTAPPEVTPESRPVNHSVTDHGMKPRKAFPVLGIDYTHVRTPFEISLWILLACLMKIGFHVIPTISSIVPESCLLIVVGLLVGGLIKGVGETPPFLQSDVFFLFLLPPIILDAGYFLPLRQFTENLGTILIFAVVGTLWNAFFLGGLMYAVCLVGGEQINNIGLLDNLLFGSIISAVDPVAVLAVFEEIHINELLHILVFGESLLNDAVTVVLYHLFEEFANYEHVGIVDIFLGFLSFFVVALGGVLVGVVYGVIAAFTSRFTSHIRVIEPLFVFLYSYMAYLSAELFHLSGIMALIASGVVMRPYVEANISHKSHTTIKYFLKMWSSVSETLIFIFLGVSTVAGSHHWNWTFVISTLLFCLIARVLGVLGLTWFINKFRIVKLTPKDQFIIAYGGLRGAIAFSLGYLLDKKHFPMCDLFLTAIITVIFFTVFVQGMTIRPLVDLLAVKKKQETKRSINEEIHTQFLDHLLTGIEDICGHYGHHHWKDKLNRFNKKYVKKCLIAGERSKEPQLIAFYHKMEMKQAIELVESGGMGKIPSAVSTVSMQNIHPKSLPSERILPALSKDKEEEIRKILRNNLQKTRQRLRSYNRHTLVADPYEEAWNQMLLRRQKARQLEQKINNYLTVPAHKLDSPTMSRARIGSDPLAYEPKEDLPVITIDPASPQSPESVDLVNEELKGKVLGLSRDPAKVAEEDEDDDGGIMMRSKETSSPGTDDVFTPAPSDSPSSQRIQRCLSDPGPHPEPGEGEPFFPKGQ
Structure (SMILES),Proliferation and migration of human PASMCs (human PASMCs),Thermal stability (mp/dec) [1] [°C],Dissolution levels in FeSSIF pH 5.0 ([2]; 5 min) [mg/mL],Dissolution levels in FeSSIF pH 5.0 ([2]; 15 min),Dissolution levels in FeSSIF pH 5.0 ([2]; 60 min),Dissolution levels in FeSSIF pH 5.0 ([2]; 120 min),Hygroscopicity classification acc. to Ph. Eur. criteria (section 5.11.) [3],also measured
N=C(N)NC(=O)c1ccc(N2CCN(C(=O)c3ccc[nH]3)CC2)c(C(F)(F)F)c1 [Sabiporide],inhibit proliferation and migration,–,–,–,–,–,–,–
N=C(N)NC(=O)c1nc(Cl)c(N)nc1N [Amiloride],inhibit proliferation and migration,–,–,–,–,–,–,–
CCN(c1nc(N)c(C(=O)NC(=N)N)nc1Cl)C(C)C [EIPA],inhibit proliferation and migration,–,–,–,–,–,–,Proliferation and migration (SuHx rats): inhibit proliferation and migration
"Cc1cc(S(C)(=O)=O)c(S(C)(=O)=O)cc1C(=O)NC(=N)N [Besylate-NF1, N-(4,5-bis-methanesulfonyl-2-methyl-benzoyl)-guanidine]",–,> 280,4.059,5.57±0.02 mg/mL and 5.570 mg/mL,5.57±0.02 mg/mL and 5.570 mg/mL,3.87±0.02 mg/mL and 3.873 mg/mL,slightly hygroscopic,"Dissolution behavior compared to prior-art form HCl-H1 [2]: improved dissolution behavior; Water uptake levels (Water Vapour Sorption) [3, 7]: 1.0 wt %"
"Cc1cc(S(C)(=O)=O)c(S(C)(=O)=O)cc1C(=O)NC(=N)N [HCl-A3, N-(4,5-bis-methanesulfonyl-2-methyl-benzoyl)-guanidine]",–,> 240,0.418,0.74±0.02 mg/mL and 0.738 mg/mL,2.51±0.02 mg/mL and 2.506 mg/mL,3.78±0.02 mg/mL and 3.781 mg/mL,non-hygroscopic,Water uptake levels (Water Vapour Sorption) ([3]; entire relative humidity range 0-98% rh): ≤ 0.4 wt %
"Cc1cc(S(C)(=O)=O)c(S(C)(=O)=O)cc1C(=O)NC(=N)N [Citrate-NF1, N-(4,5-bis-methanesulfonyl-2-methyl-benzoyl)-guanidine]",–,~180,2.056,4.13±0.02 mg/mL and 4.132 mg/mL,–,–,slightly hygroscopic,Dissolution behavior compared to prior-art form HCl-H1 [2]: improved dissolution behavior; Water uptake levels (Water Vapour Sorption) ([3]; relative humidity range 0-90% rh): ≤ 1.5 wt %; Tendency to undergo hydrate formation ([3]; upon exposure to elevated RH levels): no tendency to undergo hydrate formation
CC(C)c1ccc(C(=O)NC(=N)N)cc1S(C)(=O)=O [cariporide],–,–,–,–,–,–,–,Development of right heart failure [4]: attenuate the development of right heart failure
"Cc1cc(S(C)(=O)=O)c(S(C)(=O)=O)cc1C(=O)N=C(N)N [Rimeporide, N-(4,5-bismethanesulfonyl-2-methylbenzoyl)guanidine]",–,–,–,–,–,–,–,"Inhibition of NHE-1 [5]: potent and selective inhibitor; Cardioprotective action ([6]; animal models of DMD and dilated cardiomyopathy): good cardioprotective action; Long term accumulation of inflammation and fibrosis ([6]; animal models of DMD, skeletal muscles, the heart and the diaphragm): prevent against the long term accumulation of inflammation and fibrosis"
"Cc1cc(S(C)(=O)=O)c(S(C)(=O)=O)cc1C(=O)NC(=N)N [HCl-A2, N-(4,5-bis-methanesulfonyl-2-methyl-benzoyl)-guanidine]",–,> 240,0.990,1.19±0.02 mg/mL and 1.193 mg/mL,1.90±0.02 mg/mL and 1.897 mg/mL,2.21±0.02 mg/mL and 2.213 mg/mL,non-hygroscopic,"Water uptake levels (Water Vapour Sorption) [3, 7]: 0.1 wt %"
